Measured values: US9018438B2, “Screening method for anticancer drugs” (Kyoto University, priority 2010, dated 2015)
Structures can show the parent of a compound that is named as a salt. Where two headings read alike, the source gives them in different places.

Key:
pro-MMP-9 = assay: Gelatin zymography of RM72 culture supernatant, MMP-9; format: cell-based, human; settings: RM72 cells; DSF 16 μM, DXR 210 nM, Gra 32 nM, Pyt 5 μM; 48 hours
Procedure: Gelatin zymography with the culture supernatant of RM72 cells treated with DSF, DXR, Gra, Pyt, pDTC, HPM, and DMSO (vehicle) was performed. Specifically, RM72 cells (2×10^4 cells per well) seeded onto 96-well plates were incubated for 24 hours, and the medium was replaced with a medium containing each of the above compounds (DSF: 16 μM, DXR: 210 nM, Gra: 32 nM, Pyt: 5 μM, HPM: 1 μg/ml, pDTC: 20 μM). After incubated for 48 hours, the medium was replaced with 100 μl of DMEM containing 0.1% FBS and incubated for additional 12 hours. The culture supernatant was harvested, cleared of a solid matter by centrifugation, and analyzed by gelatin zymography in accordance with the method described in literature (Takahashi C, Sheng Z, Horan. T P, Kitayama H, Maki M, Hitomi K, Kitaura Y, Takai S, Sasahara R M, Horimoto A, Ikawa Y, Ratzkin B J, Arakawa T, Noda M. Regulation of matrix metalloproteinase-9 and inhibition of tumor invasion by the membrane-anchored glycoprotein RECK. Proc Natl Acad Sci USA 1998; 95: 13221-13226). The band intensities were normalized against the cell number determined by the SF assay.

Reck gene promoter [1] = assay: SEAP assay in YM3 cells (Reck gene promoter-reporter system); format: cell-based, mouse; settings: for Activity in Dox: in the presence of Dox (HRAS12V-off); for Induction (fold): relative SEAP activity at optimal conc., YM3 cells, regular medium (Ras-ON)
Procedure: A 4.1-kb upstream region of a mouse Reck gene (Gene ID: 53614, Chromosome 4—NC—000070.5 43884251-43888453) was inserted into a pSEAP2-Basic vector (Clontech) to give a pSEAP-RP4.1 plasmid. […] Biochem Biophys Res Commun 1999; 264: 668-675.). […] TF323-C3 cells can be distributed from one of the inventors Makoto Noda.
YM3 cells were seeded onto 96-well plates at 1×10^4 cells in 100 μl per well and incubation was performed for 5 hours to allow the cells to settle. A compound solution (500 μM, 1 μl) was added to the medium. The employed test compounds were those in the chemical library Prestwick Chemical Library (Prestwick Chemical, Illkirch, France), which is composed of 880 structurally diverse known bioactive compounds, dissolved in nano-pure grade dimethyl sulfoxide (DMSO; Wako). […] A vehicle (DMSO, 1 μl) alone as a negative control and hypothemycin (HPM, 1 mg/ml) as a positive control were added to two wells per plate. Each sample was tested on two different plates (duplicate samples).
After incubation for 48 hours, a portion (10 μl) of the culture supernatant was sampled, incubated at 65° C. (heat treatment) for 30 minutes, and then subjected to the SEAP assay using Great EscAPe™ SEAP Chemiluminescence Detection Kit (Takara Bio). The remaining medium and the cells were subjected to the cell-counting assay using SF reagent. That is, SF reagent (Nacalai) (10 μl per well) was added to the medium, the plates were incubated for 3 hours in a CO2 incubator, and the absorbance at 450 nm (A450) was measured to obtain relative cell numbers. For the SEAP activity data, “SEAP measured value/A450 value” was defined as “SEAP activity per cell”, and the value obtained by dividing “SEAP activity per cell” of each compound by “SEAP activity per cell” of the negative control was defined as “relative SEAP activity”. The mean “relative SEAP activity” of the duplicate samples and the standard error thereof were determined. For the cell number data, the value obtained by dividing the SF measured value of each compound by the SF measured value of the negative control was defined as “relative cell number”, and the mean value of the duplicate samples and the standard error thereof were determined. Samples with a large standard error were tested again. In the experiment, duplicate samples were prepared each in a regular liquid medium and in a liquid medium containing Dox (2 μg/ml), and four mean values (the relative cell number and the relative SEAP activity in the Ras-ON state and the relative cell number and the relative SEAP activity in the Ras-OFF state) were obtained (see FIG. 3).

endogenous RECK = assay: Endogenous RECK mRNA (RT-PCR) and protein (immunoblotting) expression in RM72 cells; format: cell-based, human; settings: 48 hours, Lyc 1.3 μM, Hr 11 μM
Text: Relative band intensities were obtained by normalization against HPRT1 for the mRNA and against GAPDH for the protein and subsequent division by the normalized value for the cells treated with the vehicle.

RM72 cells [2] = assay: IC30 concentration in RM72 cells; format: cell-based, human
RM72 cells [3] = format: in vivo; settings: for Lung metastasis Mean: relative lung metastasis; for Lung metastasis Mean / Tumor Mean: vehicle = 100; for Tumor Mean: relative tumor size; for anticancer activity / cancer metastasis suppressing activity: summary statement
Procedure: RM72 cells (3×10^6 cells) suspended in 0.1 ml of PBS were subcutaneously injected into the right posterior flank of Balb/c nude mice (6 weeks old, male, Charles River). […]. After 14-day treatment, the mice were anesthetized and their bioluminescence was recorded by the method described below. After the whole-body recording of the bioluminescence, the lung was resected, washed with PBS (−), and subjected to bioluminescence recording. The tumor size (length×width×height) was measured once a week. Statistical significance was assessed by Student's t-test.
Mice under anesthesia were intraperitoneally injected with 75 mg/kg of d-luciferin dissolved in PBS (−). Bioluminescence images were acquired with IVIS ImagingSystem (Xenogen) at 5 minutes after the injection (Wang S, El-Deiry W S. Requirement of p53 targets in chemosensitization of colonic carcinoma to death ligand therapy. Proc Natl Acad Sci USA 2003; 100: 15095-15100; Minn A J, Kang Y, Serganova I, Gupta G P, Giri D D, Doubrovin M, Ponomarev V, Gerald W L, Blasberg R, Massague J. Distinct organ-specific metastatic potential of individual breast cancer cells and primary tumors. J Clin Invest 2005; 115: 44-55). The photons emitted from the whole bodies or the isolated organs were collected for a period of 60 seconds and integrated. The images were analyzed using Living Image software (Xenogen).
The anti-tumorigenic and anti-metastatic activities of Pyt, Hr, Gra and Lyc were investigated with the same protocol as in Example 9. The experiment was conducted in two batches: Experiment 1 for three groups of a Pyt group, a Hr group and a vehicle group and Experiment 2 for three groups of a Gra group, a Lyc group and a vehicle group. The doses of the test compounds were set at two different quantities considered to be appropriate based on literature (see Tables 3 and 4).

Reck gene promoter [4] = assay: SEAP assay in YM3 cells (Reck gene promoter-reporter system); format: cell-based, mouse; settings: determined by dose-response assays (0.0617, 0.185, 0.556, 1.67, 5.00 μM) using YM3 cells

Compound	pro-MMP-9 level in the culture supernatant (pro-MMP-9)	Activity in Dox (Reck gene promoter [1])	Induction (fold) (Reck gene promoter [1])	expression of RECK mRNA (endogenous RECK)	expression of RECK protein (endogenous RECK)	IC30 (RM72 cells [2]) [µM]	anti-metastatic activity (RM72 cells [3]; both doses)	anti-tumorigenic activity (RM72 cells [3]; both doses)	anticancer activity (RM72 cells [3])	cancer metastasis suppressing activity (RM72 cells [3])	also measured
COc1cccc2c1C(=O)c1c(O)c3c(c(O)c1C2=O)C[C@@](O)(C(=O)CO)C[C@@H]3O[C@H]1C[C@H](N)[C@H](O)[C@H](C)O1 [Doxorubicin hydrochloride]	reduced	+ (more than 1.9-fold)	8.55								
COc1ccc2c(c1)[nH]c1c(C)nccc12.Cl [Harmine hydrochloride]		± (between 1.9 and 1.5-fold)	2.44	increased the expression	increased the expression	11	strong	strong	confirmed	confirmed	Lung metastasis Mean (RM72 cells [3]; 3 mg/kg/day): 22.0; Lung metastasis Mean (RM72 cells [3]; 10 mg/kg/day): 25.7; Tumor Mean (RM72 cells [3]; 3 mg/kg/day): 56.4; Tumor Mean (RM72 cells [3]; 10 mg/kg/day): 47.2
Cl.O[C@H]1[C@H]2c3cc4c(cc3CN3CCC(=C[C@@H]1O)[C@H]23)OCO4 [Lycorine hydrochloride]		+ (more than 1.9-fold)	3.44	increased the expression	reduced the expression	1.3		strong	confirmed	confirmed	Optimal conc. (Reck gene promoter [4]): 5.00 µM; anti-metastatic activity (RM72 cells [3]; high dose): strong; anti-metastatic activity (RM72 cells [3]; low dose): weak; Lung metastasis Mean (RM72 cells [3]; 2.5 mg/kg/day): 65.5; Lung metastasis Mean (RM72 cells [3]; 7.5 mg/kg/day): 17.7; Tumor Mean (RM72 cells [3]; 2.5 mg/kg/day): 69.7; Tumor Mean (RM72 cells [3]; 7.5 mg/kg/day): 70.9
Gramicidin	reduced	+ (more than 1.9-fold)	7.30				strong	weak	confirmed	confirmed	Optimal conc. (Reck gene promoter [1]): 5.00 µM; Lung metastasis Mean (RM72 cells [3]; 0.03 mg/kg/day): 42.0; Lung metastasis Mean (RM72 cells [3]; 0.1 mg/kg/day): 27.4; Tumor Mean (RM72 cells [3]; 0.03 mg/kg/day): 89.3; Tumor Mean (RM72 cells [3]; 0.1 mg/kg/day): 83.1
